Reference: US5300513A, “Carbostyril derivatives and pharmaceutical composition containing the same” (Otsuka Pharmaceutical Co., Ltd., priority 1990, dated 1994)
Structures can show the parent of a compound that is named as a salt. Where two headings read alike, the source gives them in different places.

Biological target: T1, V1 receptor (Rattus norvegicus, UniProt P30560)
T1 construct: Using rat liver plasma membrane preparations; from tissue; host or cells: rat liver plasma membranes
Assay: V1 receptor binding assay (inhibition of [3H]-Arg-vasopressin binding to rat liver plasma membrane)
Method: Using rat liver plasma membrane preparations prepared according to Ichihara's method [cf: Akira Ichihara, J. Bio. […] After incubation, the mixture is filtered three times using the glass filter (GF/F) so as to separate the membrane preparation combined with vasopressin and then washed with the buffer (5 ml). This glass filter is taken out and mixed with liquid scintillation cocktail. The amount of [H]^3 -vasopressin combined with the membrane is measured by liquid scintillation counter and the rate of the inhibitory effect of the test compound is estimated according to the following equation. [formula]

[1] = rat liver plasma membrane, [H]^3-Arg-vasopressin 2×10^-10 M, 37° C., 10 minutes, pH 8.0, read-out: IC50

T1 sequence (P30560 whole entry): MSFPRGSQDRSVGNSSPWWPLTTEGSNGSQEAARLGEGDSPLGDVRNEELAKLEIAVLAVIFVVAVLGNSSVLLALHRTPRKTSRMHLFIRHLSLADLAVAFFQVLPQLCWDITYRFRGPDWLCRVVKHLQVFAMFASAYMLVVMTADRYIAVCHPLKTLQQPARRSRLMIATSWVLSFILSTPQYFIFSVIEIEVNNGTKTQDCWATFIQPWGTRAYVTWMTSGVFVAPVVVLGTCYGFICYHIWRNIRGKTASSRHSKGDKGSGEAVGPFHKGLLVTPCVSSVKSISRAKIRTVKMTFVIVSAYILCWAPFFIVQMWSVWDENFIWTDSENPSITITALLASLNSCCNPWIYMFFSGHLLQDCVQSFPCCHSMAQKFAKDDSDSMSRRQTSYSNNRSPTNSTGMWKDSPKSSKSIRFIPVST

Row | SMILES | IC50 [1] [µM] | IC50 [µM]
1 | O=C(c1ccc(OCCCCCN2CCC3(CCCCC3)CC2)cc1)N1CCC(N2C(=O)CCc3ccccc32)CC1 [Test Compound 1, 1-[1-{4-[5-(Cyclohexanespiro-4'-(1-piperidinyl))pentyloxy]benzoyl}-4-piperidinyl]-3,4-dihydrocarbostyril] | 0.047 | 
2 | O=C(c1ccc(OCCCCCNC23CC4CC(CC(C4)C2)C3)cc1)N1CCC(N2C(=O)CCc3ccccc32)CC1 [Test Compound 2, 1-{1-[4-(5-Tricyclo[3.3.1.1^3.7]decanylaminopentyloxy)benzoyl]-4-piperidinyl}-3,4-dihydrocarbostyril hydrochloride] | 0.027 | 
3 | O=C(c1ccc(OCCCCCNCC23CC4CC(CC(C4)C2)C3)cc1)N1CCC(N2C(=O)CCc3ccccc32)CC1 [Test Compound 3, 1-{1-[4-(5-Tricyclo[3.3.1.1^3.7]decanylmethylaminopentyloxy)benzoyl]-4-piperidinyl}-3,4-dihydrocarbostyri] | 0.1 | 
4 | O=C(c1ccc(OCCCCCNCC(F)(F)F)cc1)N1CCC(N2C(=O)CCc3ccccc32)CC1 [Test Compound 4, 1-[1-{4-[5-(2,2,2-Trifluoroethylamino)-pentyloxy)benzoyl}-4-piperidinyl}-3,4-dihydrocarbostyril] | 0.32 | 
5 | CCOC(=O)CC(=O)OCCN(C)CCCCCOc1ccc(C(=O)N2CCC(N3C(=O)CCc4ccccc43)CC2)cc1 [Test Compound 5, 1-[1-{4-[5-[N-Methyl-N-(2-ethoxycarbonylacetyloxyethyl)amino}pentyloxy]benzoyl}-4-piperidinyl]-3,4-dihydrocarbostyril] | 0.11 | 
6 | C=CCNCC(O)CCCCOc1ccc(C(=O)N2CCC(N3C(=O)CCc4ccccc43)CC2)cc1 (stereo not drawn) [Test Compound 6, 1-{1-[4-(5-Hydroxy-6-allylaminohexyloxy)benzoyl]-4-piperidinyl}-3,4-dihydrocarbostyril] | 0.14 | 
7 | NC1CCN(CCCCCOc2ccc(C(=O)N3CCC(N4C(=O)CCc5ccccc54)CC3)cc2)CC1 [Test Compound 7, 1-[1-{4-[5-(4-Amino-1-piperidinyl)pentyloxy)-benzoyl-}-4-piperidinyl]-3,4-dihydrocarbostyril] | 0.028 | 
8 | O=C(c1ccc(OCCCCCN2CCC(NC(=O)C(F)(F)F)CC2)cc1)N1CCC(N2C(=O)CCc3ccccc32)CC1 [Test Compound 8, 1-[1-{4-[5-(4-Trifluoroacetylamino-1-piperidinyl)pentyloxy]benzoyl}-4-piperidinyl]-3,4-dihydrocarbostyril] | 0.063 | 
9 | CC(=O)NC1CCN(CCCCCOc2ccc(C(=O)N3CCC(N4C(=O)CCc5ccccc54)CC3)cc2)CC1 [Test Compound 9, 1-[1-{4-[5-(4-Acetylamino-1-piperidinyl)-pentyloxy)benzoyl}-4-piperidinyl]-3,4-dihydrocarbostyril] | 0.036 | 
10 | CCN(CC)CC(CCCCOc1ccc(C(=O)N2CCC(N3C(=O)CCc4ccccc43)CC2)cc1)OC(=O)NC (stereo not drawn) [Test Compound 10, 1-{1-[4-(5-Methylaminocarbonyloxy-6-diethylaminohexyloxy)benzoyl]-4-piperidinyl}-3,4-dihydrocarbostyril] | 0.038 | 
11 | CCOc1ccc(C(=O)N2CCC(N3C(=S)CCc4ccccc43)CC2)c(OC)c1 [Test Compound 11, 1-[1-(2-Methoxy-4-ethoxybenzoyl)-4-piperidinyl]-3,4-dihydrothiocarbostyril] | 0.73 | 
12 | O=C(c1ccc(SCCCCCN2CCCC2)cc1)N1CCC(N2C(=O)CCc3ccccc32)CC1 [Test Compound 12, 1-[1-{4-[5-(1-Pyrrolidinyl)pentylthio]-benzoyl}-4-piperidinyl]-3,4-dihydrocarbostyril] | 0.034 | 
13 | O=C(c1ccc(-c2ccccn2)cc1)N1CCC(N2C(=O)CCc3ccccc32)CC1 [Test Compound 13, 1-{1-[4-(2-Pyridyl)benzoyl}-4-piperidinyl}-3,4-dihydrocarbostyril] | 1.2 | 
14 | O=C(c1ccc(-c2ncc[nH]2)cc1)N1CCC(N2C(=O)CCc3ccccc32)CC1 [Test Compound 14, 1-{1-[4-(2-Imidazolyl)benzoyl}-4-piperidinyl}-3,4-dihydrocarbostyril] | 1.4 | 
15 | Nc1ccccc1Sc1nccn1-c1ccc(C(=O)N2CCC(N3C(=O)CCc4ccccc43)CC2)cc1 [Test Compound 15, 1-[1-{4-[2-(2-Aminophenylthio)-1-imidazolyl]-benzoyl}-4-piperidinyl]-3,4-dihydrocarbostyril] | 0.8 | 
16 | C=CCSc1ccc(C(=O)N2CCC(N3C(=O)CCc4ccccc43)CC2)c(OC)c1 [Test Compound 16, 1-[1-(2-Methoxy-4-allylthiobenzoyl)-4-piperidinyl]-3,4-dihydrocarbostyril] |  | 0.11
17 | O=C(c1ccc([S+]([O-])CCCCCN2CCCC2)cc1)N1CCC(N2C(=O)CCc3ccccc32)CC1 (stereo not drawn) [Test Compound 17, 1-[1-{4-[5-(1-Pyrrolidinyl)pentylsulfinyl)-benzoyl}-4-piperidinyl]-3,4-dihydrocarbostyril] | 3 | 
18 | O=C(c1ccc(S(=O)(=O)CCCCCN2CCCC2)cc1)N1CCC(N2C(=O)CCc3ccccc32)CC1 [Test Compound 18, 1-[1-{4-[5-(1-Pyrrolidinyl)pentylsulfonyl]-benzoyl}-4-piperidinyl]-3,4-dihydrocarbostyril] | 1.9 | 
19 | O=C(c1ccc(-c2nc3ccccc3[nH]2)cc1)N1CCC(N2C(=O)CCc3ccccc32)CC1 [Test Compound 19, 1-{1-[4-(2-Benzimidazolyl)benzoyl]-4-piperidinyl}-3,4-dihydrocarbostyril] | 2.1 | 
20 | O=C(c1ccc(-n2ccnc2-c2ccccc2)cc1)N1CCC(N2C(=O)CCc3ccccc32)CC1 [Test Compound 20, 1-{1-[4-(2-Phenyl-1-imidazolyl)benzoyl]-4-piperidinyl}-3,4-dihydrocarbostyril] | 2.8 | 
21 | COc1ccc(-c2nccn2-c2ccc(C(=O)N3CCC(N4C(=O)CCc5ccccc54)CC3)cc2)cc1 [Test Compound 21, 1-[1-{4-[2-(4-Methoxyphenyl)-1-imidazolyl]-benzoyl}-4-piperidinyl]-3,4-dihydrocarbostyril] | 2.7 | 
